Source: patent US20230398101A1, “Co-agents as Therapy Against Anaerobic Pathogens” (priority 2022, published 2023)
Where two headings read alike, the source gives them in different places.

Tests used:
[1] = tested on: Bacteroides thetaiotaomicron; test: microbe, parasite or virus in culture; assay type: cell-based; conditions: for MIC: anaerobic
[2] = tested on: Streptococcus mutans; test: Anaerobic agar-dilution AST (MIC, checkerboard FIC); assay type: cell-based; conditions: strain UA 159, anaerobic
[3] = tested on: Phocaeicola vulgatus; test: as above; assay type: cell-based; conditions: for MIC vs clinical breakpoint (susceptibility): anaerobic (Table 17)
[4] = tested on: Acinetobacter baumannii; test: Aerobic agar-dilution AST of facultative anaerobes (MIC, checkerboard FIC); assay type: cell-based
[5] = tested on: Lactobacillus plantarum; test: AST (MIC) of beneficial or mutualistic facultative anaerobic bacteria; assay type: cell-based; conditions: Lactiplantibacillus plantarum
[6] = tested on: Bacteroides fragilis; test: Anaerobic agar-dilution AST (MIC, checkerboard FIC); assay type: cell-based; conditions: for MIC vs clinical breakpoint (susceptibility): anaerobic (Table 17)
[7] = tested on: Parabacteroides distasonis; test: as above; assay type: cell-based
[8] = tested on: Lactobacillus gasseri; test: AST (MIC) of beneficial or mutualistic facultative anaerobic bacteria; assay type: cell-based
[9] = tested on: Pediococcus acidilactici; test: as above; assay type: cell-based
[10] = tested on: Leuconostoc mesenteroides; test: as above; assay type: cell-based
[11] = tested on: Burkholderia thailandensis; test: microbe, parasite or virus in culture; assay type: cell-based; conditions: ATCC700388, pH 7
[12] = tested on: Staphylococcus aureus; test: Aerobic agar-dilution AST of facultative anaerobes (MIC, checkerboard FIC); assay type: cell-based; conditions: Staphylococcus aureus, read-out: MIC
[13] = tested on: Klebsiella pneumoniae; test: as above; assay type: cell-based
[14] = tested on: Staphylococcus aureus; test: Post-antibiotic effect (PAE) in vitro, viable counts; conditions: Staphylococcus aureus ATCC 33591 (beta-lactam resistant)
[15] = tested on: Pseudomonas aeruginosa; test: Aerobic agar-dilution AST of facultative anaerobes (MIC, checkerboard FIC); assay type: cell-based
[16] = tested on: Peptostreptococcus anaerobius; test: Anaerobic agar-dilution AST (MIC, checkerboard FIC); assay type: cell-based; conditions: Peptostreptococcus anaerobious 807256
[17] = tested on: Lactobacillus paracasei; test: AST (MIC) of beneficial or mutualistic facultative anaerobic bacteria; assay type: cell-based; conditions: Lacticaseibacillus paracasei
[18] = tested on: Clostridioides difficile; test: Anaerobic agar-dilution AST (MIC, checkerboard FIC); assay type: cell-based; conditions: for MIC vs clinical breakpoint (susceptibility): anaerobic (Table 17)

Structure (SMILES): C[C@@H]1O[C@@H]1P(=O)(O)O [F, fosfomycin sodium]
- MIC vs clinical breakpoint (susceptibility) ([1]; Bacteroides thetaiotaomicron VPI5482, anaerobic (Table 17)): −
- MIC ([1]; Bacteroides thetaiotaomicron VPI 5842): >128 µg/mL
- MIC ([1]; Bacteroides thetaiotaomicron, Bacteroides thetaiotaomicron VPI 5842): 128 µg/mL
- MIC ([1]; Bacteroides thetaiotaomicron, strain VPI5482 (Tables 1, 2) / VPI 5842 (other tables)): > 128 µg/mL
- MIC [2]: 16 µg/mL
- MIC vs clinical breakpoint (susceptibility) ([3]; Phocaeicola vulgatus ATCC 8482): −
- MIC vs clinical breakpoint (susceptibility) ([3]; Phocaeicola vulgatus ATCC 29327): −
- MIC ([3]; Phocaeicola vulgatus, ATCC8482, strain ATCC 8482, anaerobic): > 128 µg/mL
- MIC ([3]; Phocaeicola vulgatus, ATCC29327, Phacoeicola vulgatus ATCC 29327, anaerobic): 128 µg/mL
- MIC ([3]; Phocaeicola vulgatus, ATCC29327, strain ATCC 29327, anaerobic): > 128 µg/mL
- MIC ([3]; Phocaeicola vulgatus, ATCC29327, strain ATCC 29327, anaerobic, read-out: MIC): 64 µg/mL
- MIC ([3]; Phocaeicola vulgatus, Phacoeicola vulgatus TCC 8482, anaerobic): > 128 µg/mL
- MIC ([3]; strain ATCC 8482, anaerobic): 128 µg/mL
- MIC [4]: > 128 µg/mL
- MIC ([4]; pH 7, Acinetobacter baumannii 918857, pH 7, read-out: MIC): 64000 µg/mL
- MIC ([4]; strain 843978, aerobic, read-out: MIC): 8 µg/mL
- MIC ([4]; strain 918857, aerobic, read-out: MIC): 64 µg/mL
- MIC ([4]; strain 919656, aerobic, read-out: MIC): 8 µg/mL
- MIC ([4]; strain 919899, aerobic, read-out: MIC): 8 µg/mL
- MIC ([4]; strain 938781, aerobic, read-out: MIC): 16 µg/mL
- MIC ([4]; strain 1049160, aerobic, read-out: MIC): 8 µg/mL
- MIC [5]: > 128 µg/mL
- MIC ([6]; ATCC25285, Bacteroides fragilis ATCC 25285, anaerobic, read-out: MIC): 64 µg/mL
- MIC vs clinical breakpoint (susceptibility) ([6]; Bacteroides fragilis 638R): −
- MIC vs clinical breakpoint (susceptibility) ([6]; Bacteroides fragilis ATCC 23745): −
- MIC vs clinical breakpoint (susceptibility) ([6]; Bacteroides fragilis ATCC 25285): −
- MIC vs clinical breakpoint (susceptibility) ([6]; Bacteroides fragilis CLA267): −
- MIC vs clinical breakpoint (susceptibility) ([6]; Bacteroides fragilis O16M): −
- MIC ([6]; Bacteroides fragilis, ATCC23745, Bacteroides fragilis ATCC 23745, anaerobic): > 128 µg/mL
- MIC ([6]; Bacteroides fragilis, ATCC23745, strain ATCC 23745, anaerobic): > 128 µg/mL
- MIC ([6]; Bacteroides fragilis, ATCC25285, Bacteroides fragilis ATCC 25285, anaerobic): > 128 µg/mL
- MIC ([6]; Bacteroides fragilis, ATCC25285, strain ATCC 25285, anaerobic): > 128 µg/mL
- MIC ([6]; Bacteroides fragilis, Bacteroides fragilis 016M, anaerobic): > 128 µg/mL
- MIC ([6]; Bacteroides fragilis, Bacteroides fragilis 638R, anaerobic): > 128 µg/mL
- MIC ([6]; Bacteroides fragilis, Bacteroides fragilis CLA 267, anaerobic): > 128 µg/mL
- MIC ([6]; Bacteroides fragilis, strain 638R, anaerobic): > 128 µg/mL
- MIC ([6]; Bacteroides fragilis, strain CLA267, anaerobic): > 128 µg/mL
- MIC ([6]; Bacteroides fragilis, strain O16M (016M), anaerobic): > 128 µg/mL
- MIC ([6]; strain ATCC 25285, anaerobic): 128 µg/mL
- MIC ([6]; strain CLA267, anaerobic): 128 µg/mL
- MIC ([7]; Parabacteroides distasonis): > 128 µg/mL
- MIC ([7]; Parabacteroides distasonis CLA 348, anaerobic): >128 µg/mL
- MIC [8]: > 128 µg/mL
- MIC [9]: > 128 µg/mL
- MIC [10]: > 128 µg/mL
- MIC [11]: 64000 µg/mL
- MIC ([12]; ATCC33591, Staphylococcus aureus ATCC 33591 (Table 15)): 4 µg/mL
- MIC ([12]; Staphylococcus aureus 829025): 8 µg/mL
- MIC ([12]; Staphylococcus aureus 894946): 8 µg/mL
- MIC ([12]; Staphylococcus aureus 920576): 8 µg/mL
- MIC ([12]; Staphylococcus aureus 920962): 8 µg/mL
- MIC ([12]; Staphylococcus aureus 927596): 8 µg/mL
- MIC ([12]; Staphylococcus aureus 952566 (Table 15)): > 16 µg/mL
- MIC ([12]; Staphylococcus aureus 952566 (Tables 14A/14B)): 8 µg/mL
- MIC ([12]; Staphylococcus aureus 953041 (Table 15)): 4 µg/mL
- MIC ([12]; Staphylococcus aureus 956270): 8 µg/mL
- MIC ([12]; Staphylococcus aureus 956362): 8 µg/mL
- MIC ([12]; Staphylococcus aureus 981550 (Table 15)): 16 µg/mL
- MIC ([12]; Staphylococcus aureus 981550 (Tables 14A/14B)): 8 µg/mL
- MIC ([12]; Staphylococcus aureus 994946): 2 µg/mL
- MIC ([12]; Staphylococcus aureus 1022425): 16 µg/mL
- MIC ([12]; Staphylococcus aureus 1045190): 8 µg/mL
- MIC ([12]; strain (MR) 829025, aerobic): 4 µg/mL
- MIC ([12]; strain (MR) 884649, aerobic): 8 µg/mL
- MIC ([12]; strain (MR) 903887, aerobic): 8 µg/mL
- MIC ([12]; strain (MR) 918019, aerobic): 4 µg/mL
- MIC ([12]; strain (MR) 920516, aerobic): 4 µg/mL
- MIC ([12]; strain (MR) 927596, aerobic): 8 µg/mL
- MIC ([12]; strain (MR) 956270, aerobic): 4 µg/mL
- MIC ([12]; strain (MR) 956362, aerobic): 8 µg/mL
- MIC ([12]; strain (MR) 967287, aerobic): 8 µg/mL
- MIC ([12]; strain (MR) 974980, aerobic): 8 µg/mL
- MIC ([12]; strain (MR) 979234, aerobic): 8 µg/mL
- MIC ([12]; strain (MR) 981550, aerobic): 4 µg/mL
- MIC ([12]; strain (MR) 1022425, aerobic): 8 µg/mL
- MIC ([12]; strain (MR) 1045190, aerobic): 4 µg/mL
- MIC ([13]; Klebsiella pneumoniae 870964): 64 µg/mL
- MIC ([13]; Klebsiella pneumoniae 875638): 64 µg/mL
- MIC ([13]; pH 5, Klebsiella pneumoniae 848788, pH 5): 64000 µg/mL
- MIC ([13]; strain 848788, aerobic): 32 µg/mL
- MIC ([13]; strain 857147, aerobic): 32 µg/mL
- MIC ([13]; strain 868968, aerobic): 8 µg/mL
- MIC ([13]; strain 869028, aerobic): 8 µg/mL
- MIC ([13]; strain 870964, aerobic): 8 µg/mL
- MIC ([13]; strain 875638, aerobic): 16 µg/mL
- MIC ([13]; strain 892483, aerobic): 4 µg/mL
- MIC ([13]; strain 926439, aerobic): 4 µg/mL
- MIC ([13]; strain 926456, aerobic): 64 µg/mL
- MIC ([13]; strain 939665, aerobic): 64 µg/mL
- MIC ([13]; strain 957464, aerobic): 16 µg/mL
- MIC ([13]; strain 957467, aerobic): 16 µg/mL
- MIC ([13]; strain 984643, aerobic): 16 µg/mL
- MIC ([13]; strain 993434, aerobic): 16 µg/mL
- MIC ([13]; strain 995460, aerobic): 16 µg/mL
- MIC ([13]; strain 1040205, aerobic): 16 µg/mL
- PAE ([14]; exposure μg/ml: F 16, D/S 1/19, V 4, F/D/S 4/0.25/4.75, F/D/S/V 2/0.125/2.38/0.5): 0.5 h
- PAE ([14]; exposure μg/ml: F 32, D/S 2/38, V 8, F/D/S 8/0.5/9,5, F/D/S/V 4/0.25/4.75/1): 0.5 h
- PAE ([14]; exposure μg/ml: F 64, D/S 4/64, V 16, F/D/S 16/1/19, F/D/S/V 8/0.5/9.5/2): 0.5 h
- MIC ([15]; Pseudomonas aeruginosa): 128 µg/mL
- MIC ([15]; Pseudomonas aeruginosa 945748): 128 µg/mL
- MIC ([15]; Pseudomonas aeruginosa, pH 5, Pseudomonas aeruginosa 27853, pH 5, read-out: MIC): 32000 µg/mL
- MIC ([15]; Pseudomonas aeruginosa, pH 5, Pseudomonas aeruginosa 975744, pH 5, read-out: MIC): 32000 µg/mL
- MIC ([15]; Pseudomonas aeruginosa, pH 8, Pseudomonas aeruginosa 27853, pH 8, read-out: MIC): 64000 µg/mL
- MIC ([15]; Pseudomonas aeruginosa, strain 880238, aerobic, read-out: MIC): 8 µg/mL
- MIC ([15]; Pseudomonas aeruginosa, strain 889058, aerobic, read-out: MIC): 64 µg/mL
- MIC ([15]; Pseudomonas aeruginosa, strain 906939, aerobic, read-out: MIC): 64 µg/mL
- MIC vs clinical breakpoint (susceptibility) ([16]; anaerobic (Table 17)): +
- MIC ([16]; Peptostreptococcus anaerobius, anaerobic): 16 µg/mL
- MIC [17]: > 128 µg/mL
- MIC vs clinical breakpoint (susceptibility) ([18]; Clostridioides difficile 2-0247-4): +
- MIC vs clinical breakpoint (susceptibility) ([18]; Clostridioides difficile 3/8): +
- MIC vs clinical breakpoint (susceptibility) ([18]; Clostridioides difficile 10-3620-5): +
- MIC ([18]; Clostridioides difficile, Clostridioides difficile 3/8, anaerobic, read-out: MIC): 32 µg/mL
- MIC ([18]; Clostridioides difficile, Clostridioides difficile 10-3620-5, anaerobic): 16 µg/mL
- MIC ([18]; Clostridioides difficile, strain 2-0247-4, anaerobic, read-out: MIC): 16 µg/mL
- MIC ([18]; Clostridioides difficile, strain 10-3620-5, anaerobic, read-out: MIC): 8 µg/mL
- MIC ([18]; strain 2-0247-4, anaerobic): 32 µg/mL
- MIC ([18]; strain 10-3620-5, anaerobic): 16 µg/mL
